# In article PMC9667546, “Selective Inhibition of Bruton’s Tyrosine Kinase by a Designed Covalent Ligand Leads to Potent Therapeutic Efficacy in Blood Cancers Relative to Clinically Used Inhibitors” (ACS Pharmacology & Translational Science, 2022):
# Where “and” joins values, the source holds several entries; their conditions need not be identical. Equal values may be shown once.
# Legend:
# TEC = target: T1, TEC (Homo sapiens, UniProt P42680); conditions: 1 µM inhibition screening; ref SI 8–10; cited from earlier work
# T1 construct: host or cells: HEK296T (so in the source)
# T1 sequence (P42680 1-631): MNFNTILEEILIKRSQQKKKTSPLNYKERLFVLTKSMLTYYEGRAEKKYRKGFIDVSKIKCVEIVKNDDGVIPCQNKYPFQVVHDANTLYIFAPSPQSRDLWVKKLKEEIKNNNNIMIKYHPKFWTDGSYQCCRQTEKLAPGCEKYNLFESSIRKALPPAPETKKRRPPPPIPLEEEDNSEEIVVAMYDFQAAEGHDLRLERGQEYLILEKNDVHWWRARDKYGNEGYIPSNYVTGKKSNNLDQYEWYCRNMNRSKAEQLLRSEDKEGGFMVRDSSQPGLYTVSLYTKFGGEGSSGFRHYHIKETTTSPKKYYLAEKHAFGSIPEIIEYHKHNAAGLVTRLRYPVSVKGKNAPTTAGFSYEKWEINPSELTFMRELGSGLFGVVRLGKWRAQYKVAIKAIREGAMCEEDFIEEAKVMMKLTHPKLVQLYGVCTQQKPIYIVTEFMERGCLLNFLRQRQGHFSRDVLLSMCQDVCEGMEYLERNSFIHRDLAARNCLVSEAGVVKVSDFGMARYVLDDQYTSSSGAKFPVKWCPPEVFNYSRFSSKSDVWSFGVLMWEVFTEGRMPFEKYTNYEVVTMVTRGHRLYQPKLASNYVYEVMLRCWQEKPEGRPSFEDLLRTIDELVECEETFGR
# BLK = BLK (Homo sapiens, UniProt P51451); conditions: cited from earlier work
# BLK, sequence (P51451 whole entry): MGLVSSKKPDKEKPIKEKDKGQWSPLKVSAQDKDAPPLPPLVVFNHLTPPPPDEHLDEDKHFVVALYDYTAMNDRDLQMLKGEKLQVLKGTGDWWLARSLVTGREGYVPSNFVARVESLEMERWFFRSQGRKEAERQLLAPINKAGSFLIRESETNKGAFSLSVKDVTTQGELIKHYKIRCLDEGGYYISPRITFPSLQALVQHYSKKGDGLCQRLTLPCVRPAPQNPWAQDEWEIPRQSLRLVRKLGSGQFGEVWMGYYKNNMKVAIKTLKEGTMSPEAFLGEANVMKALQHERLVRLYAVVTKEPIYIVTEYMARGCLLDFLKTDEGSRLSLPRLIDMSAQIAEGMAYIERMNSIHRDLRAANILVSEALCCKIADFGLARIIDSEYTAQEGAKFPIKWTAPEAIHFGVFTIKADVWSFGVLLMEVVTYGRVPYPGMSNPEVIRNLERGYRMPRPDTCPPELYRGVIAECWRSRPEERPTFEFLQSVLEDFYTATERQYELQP
# TXK = target: T2, TXK (Homo sapiens, UniProt P42681); conditions: cited from earlier work
# T2 construct: host or cells: HEK296T (so in the source)
# T2 sequence (P42681 1-527): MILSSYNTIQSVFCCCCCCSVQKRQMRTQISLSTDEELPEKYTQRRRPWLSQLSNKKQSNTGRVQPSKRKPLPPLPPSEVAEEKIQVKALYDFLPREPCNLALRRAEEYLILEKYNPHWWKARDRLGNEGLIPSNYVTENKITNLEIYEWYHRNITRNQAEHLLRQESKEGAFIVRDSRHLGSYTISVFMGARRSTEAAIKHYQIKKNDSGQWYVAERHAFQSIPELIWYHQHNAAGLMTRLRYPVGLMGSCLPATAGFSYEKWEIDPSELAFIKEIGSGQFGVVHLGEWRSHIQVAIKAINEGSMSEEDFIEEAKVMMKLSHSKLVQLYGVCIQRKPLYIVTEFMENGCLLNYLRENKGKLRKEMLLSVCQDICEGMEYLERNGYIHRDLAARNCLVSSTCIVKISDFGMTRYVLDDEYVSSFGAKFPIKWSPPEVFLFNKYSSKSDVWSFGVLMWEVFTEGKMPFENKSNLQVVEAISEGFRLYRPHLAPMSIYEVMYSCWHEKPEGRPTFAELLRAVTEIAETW
# EGFR = target: T3, EGFR (Homo sapiens, UniProt P00533); conditions: cited from earlier work
# T3 construct: host or cells: HEK296T (so in the source)
# T3 sequence (P00533 25-1210): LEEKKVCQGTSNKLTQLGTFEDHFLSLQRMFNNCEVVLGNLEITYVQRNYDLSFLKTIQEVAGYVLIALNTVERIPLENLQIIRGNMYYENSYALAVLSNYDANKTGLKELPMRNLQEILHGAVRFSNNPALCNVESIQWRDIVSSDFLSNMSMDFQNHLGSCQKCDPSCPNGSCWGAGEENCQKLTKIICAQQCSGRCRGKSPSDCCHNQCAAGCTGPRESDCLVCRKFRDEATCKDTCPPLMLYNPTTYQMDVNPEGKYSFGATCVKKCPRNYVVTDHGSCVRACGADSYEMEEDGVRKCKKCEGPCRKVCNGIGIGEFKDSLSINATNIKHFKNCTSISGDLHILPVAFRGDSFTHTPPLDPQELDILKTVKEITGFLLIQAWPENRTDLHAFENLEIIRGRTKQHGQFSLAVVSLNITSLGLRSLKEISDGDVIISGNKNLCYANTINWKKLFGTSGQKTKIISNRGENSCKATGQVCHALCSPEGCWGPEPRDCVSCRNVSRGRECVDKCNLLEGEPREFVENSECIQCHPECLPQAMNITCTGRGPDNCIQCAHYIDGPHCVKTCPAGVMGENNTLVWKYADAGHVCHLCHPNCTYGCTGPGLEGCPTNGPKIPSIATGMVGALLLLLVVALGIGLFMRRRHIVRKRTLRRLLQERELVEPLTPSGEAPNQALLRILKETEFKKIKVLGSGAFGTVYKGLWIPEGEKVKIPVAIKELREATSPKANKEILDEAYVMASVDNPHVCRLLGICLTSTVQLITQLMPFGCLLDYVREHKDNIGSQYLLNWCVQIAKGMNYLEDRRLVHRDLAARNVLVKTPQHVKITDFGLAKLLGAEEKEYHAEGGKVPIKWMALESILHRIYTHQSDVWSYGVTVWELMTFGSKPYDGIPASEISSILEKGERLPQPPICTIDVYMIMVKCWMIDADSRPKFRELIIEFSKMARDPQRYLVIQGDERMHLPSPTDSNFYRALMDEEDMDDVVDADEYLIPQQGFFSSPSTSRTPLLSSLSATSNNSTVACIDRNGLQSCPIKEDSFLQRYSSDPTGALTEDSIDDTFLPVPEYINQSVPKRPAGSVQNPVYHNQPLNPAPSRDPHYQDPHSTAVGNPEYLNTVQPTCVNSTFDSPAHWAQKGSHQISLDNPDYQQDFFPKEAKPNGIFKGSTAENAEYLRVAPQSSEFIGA
# HL-60 cells (APML) = test: Cell viability assay (CellTiter-Glo), HL-60; type: cell-based; conditions: Homo sapiens, 72 h, n = 3
# Description: (§1) All cell lines were purchased from ATCC, except for DoHH-2 cells that were obtained from DSMZ. Cells were cultivated in complete DMEM supplemented with 10% (vol/vol) FBS (Gibco) and 1% of penicillin/streptomycin (Gibco). The cells were grown in a humidified atmosphere of 5% CO2 at 37°C, with the medium changed every other day.
# (§2) Cells were inoculated at a density of 5000 cells/well. Serially diluted compounds (starting at 50 μM) were added 24 h later. The assay was performed in triplicates. After 72 h of incubation, cellular viability was assessed by CellTiter-Glo (Promega) according to the manufacturer’s instructions. The values were normalized with the vehicle (DMSO), and the IC50 was calculated using GraphPad Prism 8.
# Her2 = conditions: read-out: IC50, Her2; Table S3 heat map; ref SI 1-19; cited from earlier work
# Raji cells = test: Mice xenograft model of Burkitt’s lymphoma (subcutaneous Raji cells); type: in vivo
# Description: Female adult BALB/c/NSG mice were injected subcutaneously with 1 × 10^6 Raji cells, in a 1:1 solution of Matrigel Matrix (Corning) to create solid tumors. When tumors reached 180 mm^3 on average, mice were randomized into four groups (n = 6/group), and dosing began every 2 days. […] Tumor size and body weight were monitored periodically for 12 days. At the end of the experiment, mice necropsies were performed. Stereological analysis was conducted by the Histopathology Unit at Instituto Gulbenkian de Ciência and by the Comparative Pathology Unit at Instituto de Medicina Molecular João Lobo Antunes. Quantification of metastases and cell necrosis was performed in all groups (n = 5/group). Statistical analysis was conducted using one-way ANOVA. The Dunnet test was used to analyze the statistical significance between the treatment groups and the control.
# DoHH-2 cells (DLBCL) = test: Cell viability assay (CellTiter-Glo), DoHH-2; type: cell-based; conditions: Homo sapiens, 72 h, n = 3
# Description: as §1, §2
# Raji cells (BL) = test: Cell viability assay (CellTiter-Glo), Raji; type: cell-based; conditions: Homo sapiens, 72 h, n = 3
# Description: as §1, §2
# MOLM-13 cells (AML) = test: Cell viability assay (CellTiter-Glo), MOLM-13; type: cell-based; conditions: Homo sapiens, 72 h, n = 3
# Description: as §1, §2
# HBEC-5i cell model = test: In vitro blood–brain barrier permeability (translocation), HBEC-5i cell model; type: in vitro ADME, human; conditions: Translocation 24 h, compound 15 μM
# Description: Human cerebral microvascular endothelial cells (HBEC-5i) were cultured as a monolayer on attachment factor protein solution (AF)-coated T-flasks (Gibco), using DMEM/F12 medium (Gibco), supplemented with 10% FBS, 1% penicillin/streptomycin, and 40.0 μg/mL endothelial cell growth supplement (ECGS, Sigma), according to the manufacturer’s instructions. The capacity of the compounds to cross the brain–blood barrier (BBB) was evaluated using an in vitro HBEC-5i cell model, as previously described.[29] Samples from the apical and basolateral sides were collected, and fluorescence intensity was measured using a Varioskan LUX multimode microplate reader. The retention was considered the difference between the initial fluorescence of compounds (100%) and the aggregated apical and basolateral fluorescence.
# PBMCs from CLL patients = test: Zebrafish patient-derived xenografts of chronic lymphocytic leukemia; type: in vivo; conditions: all zPDXs, 48 h of treatment
# Description: Whole blood (3–6 mL) from CLL patients (Supporting Table S1) was collected, and PBMCs were purified by Ficoll-Paque PLUS (GE Healthcare) density centrifugation.
# The collected PBMCs were resuspended in RPMI (Biowest) with 3 times their volume and centrifuged at 1400 rpm, 4 °C, for 7 min. Cell pellets were resuspended in DPBS 1× (Biowest) supplemented with universal nuclease at 25 U/mL (Thermo Scientific). Concentration was normalized to […] for zebrafish patient-derived xenograft (zPDX) generation. Prior to drug efficacy analysis in zebrafish, the cells were distributed to proceed for flow cytometry, to determine the percentage of CD19+CD5+ cells within the CD45+ population, from PBMCs of each CLL patient. The maximum tolerated concentration was also determined for each compound in noninjected zebrafish larvae (Supporting Figure S1).
# Zebrafish larvae were anesthetized with Tricaine 1×, and thawed PBMCs were microinjected into the perivitelline space of anesthetized zebrafish larvae at 48 h post fertilization. […] At the end of the assay, 4 days post injection, zebrafish xenografts were sacrificed with an overdose of Tricaine 25× and fixed in 4% formaldehyde (Thermo Scientific) overnight, followed by storage in 100% methanol (VWR) at −20 °C.
# The whole mount immunofluorescence protocol was started by rehydrating the xenografts through methanol series (75% > 50% > 25% in PBS 1×-Triton 0.1%). Next, the xenografts were permeabilized in PBS 1× with 0.1% (v/v) Triton and incubated in a blocking solution (containing 1% BSA and 1.5% goat serum) for 1 h at room temperature. The xenografts were incubated with the primary antibodies (anti-cleaved caspase 3—Cell Signaling Technology, clone Asp175, 9661, 1:100; anti-human mitochondria—Merck Millipore, clone 113-1, MAB1273, 1:50) diluted in the blocking solution overnight at 4 °C, followed by additional overnight incubation with 1:400 of secondary antibodies: Alexa goat anti-rabbit 594 (35560, Thermo Scientific) and Alexa goat anti-mouse 647 (84545, Thermo Scientific), and nuclei counterstaining with DAPI at 50 μg/mL (Sigma-Aldrich).
# All images were obtained using a Zeiss LSM 980 Upright confocal laser scanning microscope. Xenografts were mounted in in-house Mowiol mounting media, and sequential images along tumor’s depth (from cloaca until the end of the tail) with a 5 μm interval were acquired using the z-stack function. […] For tumor burden, the area occupied by the PBMCs in each slice of the z-stack pile was determined by ImageJ software and summed up to obtain the tumor burden per xenograft. […]
# Statistical analysis was performed using GraphPad Prism 8. […] A Gaussian distribution was only assumed for data sets that pass both normality tests and were analyzed by an unpaired t-test with Welch’s correction. […]
# BTK = BTK (Homo sapiens, UniProt Q06187); parameters: purchased Promega Corporation V2941; conditions: Table S3 heat map; ref SI 1-19; read-out: IC50, BTK; cited from earlier work
# BTK, sequence (Q06187 whole entry): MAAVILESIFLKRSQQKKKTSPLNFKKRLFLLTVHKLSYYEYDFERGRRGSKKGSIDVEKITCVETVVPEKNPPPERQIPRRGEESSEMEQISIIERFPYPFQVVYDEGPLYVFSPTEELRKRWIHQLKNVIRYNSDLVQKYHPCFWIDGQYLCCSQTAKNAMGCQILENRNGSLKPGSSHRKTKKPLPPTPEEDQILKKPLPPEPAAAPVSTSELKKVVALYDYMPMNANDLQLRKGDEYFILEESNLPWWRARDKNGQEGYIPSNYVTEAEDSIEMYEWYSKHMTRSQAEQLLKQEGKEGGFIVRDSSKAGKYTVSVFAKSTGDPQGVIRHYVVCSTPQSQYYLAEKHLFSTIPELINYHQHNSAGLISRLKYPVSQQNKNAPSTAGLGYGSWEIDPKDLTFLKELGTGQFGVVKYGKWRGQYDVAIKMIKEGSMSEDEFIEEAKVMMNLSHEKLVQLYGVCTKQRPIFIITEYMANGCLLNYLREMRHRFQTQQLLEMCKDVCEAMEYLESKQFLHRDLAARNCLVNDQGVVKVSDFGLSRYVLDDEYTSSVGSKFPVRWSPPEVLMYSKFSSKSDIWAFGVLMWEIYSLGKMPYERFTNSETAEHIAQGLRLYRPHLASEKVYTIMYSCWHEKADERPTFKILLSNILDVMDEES
# [1] = 1 µM inhibition screening, ref SI 8–10
# [2] = 10 mg/kg, average of 5 animals, stereological analysis
# [3] = 10 mg/kg, individual animals #1 to #5 in order
smiles,measurement,setting,value
"C=CC(=O)N1CCC(CNc2ncnc(N)c2-c2ccc(Oc3ccccc3)cc2)CC1 [Evobrutinib, evobrutinib]","inhibition, TEC",TEC,82%
same,"inhibition, BLK",BLK; [1],36%
same,"inhibition, TXK",TXK; [1],36%
same,"inhibition, EGFR",EGFR; [1],0%
"C=CC(=O)N1CCC[C@@H](n2nc(-c3ccc(Oc4ccccc4)cc3)c3c(N)ncnc32)C1 [ibrutinib, reference compound]",IC50,HL-60 cells (APML),7740 ± 30 nM
same,reduction in percentage of metastases,"Raji cells; 10 mg/kg i.p. every 2 days, n = 5/group",around 30%
same,"Metastasis volume, Brain, Average",Raji cells; [2],0.78 mm³
same,"Metastasis volume, Liver, Average",Raji cells; [2],4.73 mm³
same,"Metastasis volume, Lung, Average",Raji cells; [2],26.92 mm³
same,"Metastasis volume, Spinal, Average",Raji cells; [2],51.37 mm³
same,"Secondary tumour, Average",Raji cells; [2],64.21 mm³
same,"Metastasis volume, Brain, single animals",Raji cells; [3],0.86 mm³ and 0.82 mm³ and 0.00 mm³ and 1.72 mm³ and 0.48 mm³
same,"Metastasis volume, Liver, single animals",Raji cells; [3],12.05 mm³ and 11.54 mm³ and 0.03 mm³ and 0.00 mm³ (2×)
same,"Metastasis volume, Lung, single animals",Raji cells; [3],134.59 mm³ and 0.00 mm³ (4×)
same,"Metastasis volume, Spinal, single animals",Raji cells; [3],55.71 mm³ and 86.64 mm³ and 4.378 mm³ and 10.76 mm³ and 99.35 mm³
same,"Secondary tumour, single animals",Raji cells; [3],96.59 mm³ and 0.00 mm³ (3×) and 224.46 mm³
same,IC50,DoHH-2 cells (DLBCL),~70 nM
same,IC50,Raji cells (BL),36200 ± 310 nM
same,IC50,MOLM-13 cells (AML),~460 nM
same,"% Fluorescence, Basolateral side (permeability to the BBB)",HBEC-5i cell model,51.9%
"CC1(C)CCC(CN2CCN(c3ccc(C(=O)NS(=O)(=O)c4ccc(NCC5CCOCC5)c([N+](=O)[O-])c4)c(Oc4cnc5[nH]ccc5c4)c3)CC2)=C(c2ccc(Cl)cc2)C1 [venetoclax, reference compound]",effect on tumor incidence and burden,PBMCs from CLL patients,major impact on tumor incidence and burden
CC#CC(=O)N1CCC[C@H]1c1nc(-c2ccc(C(=O)Nc3ccccn3)cc2)c2c(N)nccn12 [acalabrutinib],IC50,MOLM-13 cells (AML),28400 ± 30 nM
same,"% Fluorescence, Basolateral side (permeability to the BBB)",HBEC-5i cell model,29.2%
"CC#CC(=O)N1CC[C@@H](n2c(=O)n(-c3ccc(Oc4ccccc4)cc3)c3c(N)ncnc32)C1 [Tirabrutinib, tirabrutinib]",IC50,Her2,7310 nM
same,IC50,"BLK; read-out: IC50, BLK, Table S3 heat map, ref SI 1-19",300 nM
same,IC50,"TXK; Table S3 heat map, ref SI 1-19",92 nM
NC(=O)[C@H]1CCN(c2ncnc(N)c2F)C[C@@H]1N1CCC[C@@H](Nc2cc(Cl)cc(C(F)(F)F)c2)C1=O [Vecabrutinib],IC50,BTK,3 nM
same,IC50,"EGFR; Table S3 heat map, ref SI 1-19",> 6000 nM
"C=CC(=O)N1CCC([C@@H]2CCNc3c(C(N)=O)c(-c4ccc(Oc5ccccc5)cc4)nn32)CC1 [Zanubrutinib, zanubrutinib]",IC50,Her2,661 nM
